Experimental data: patent US6864261B2, “Therapeutic agents useful for treating pain” (Euro-Celtique S.A., priority 2002, dated 2005)

Target: T1, mGluR5 (Rattus norvegicus, UniProt P31424)
T1 construct: The procedure allows the expression of the mGluR5 receptor by astrocytes; endogenous in cells; host or cells: secondary astrocyte cultures from cortices of Sprague-Dawley E18 embryos, cultured with EGF
Assay: Inhibition of glutamate induced calcium mobilization in astrocytes expressing mGluR5 (Fluo-4, Fluorometric Imaging Plate reader)
Assay type: cell-based
Conditions: final glutamate 10 mM (FIG. 1 legend: 10 μM), mean of 3 experiments
Experimental: Cell cultures: Primary glial cultures were prepared from cortices of Sprague-Dawley 18 days old embryos. The cortices were dissected and then dissociated by trituration. The resulting cell homogenate was plated onto poly-D-lysine precoated T175 flasks (BIOCOAT, commercially available from Becton Dickinson and Company Inc. of Franklin Lakes, N.J.) in Dulbecco's Modified Eagle's Medium (“DMEM,” pH 7.4), buffered with 25 mM HEPES, and supplemented with 15% fetal calf serum (“FCS,” commercially available from Hyclone Laboratories Inc. of Omaha, Nebr.), and incubated at 37° C. and 5% CO2. After 24 hours, FCS supplementation was reduced to 10%. […]
Assay Protocol: After 3-5 days incubation with EGF, the astrocytes were washed with 127 mM NaCl, 5 mM KCl, 2 mM MgCl2, […] NaH2PO4, 2 mM CaCl2, 5 mM NaHCO3, 8 mM HEPES, 10 mM Glucose at pH 7.4 (“Assay Buffer”) and loaded with the dye Fluo-4 (commercially available from Molecular Probes Inc. of Eugene, Oreg.) using 0.1 mL of Assay Buffer containing Fluo-4 ([…]). […] The plates containing the astrocytes were then transferred to a Fluorometric Imaging Plate reader (commercially available from Molecular Devices Corporation of Sunnyvale, Calif.) for the assessment of calcium mobilization flux in the presence of glutamate and in the presence or absence of antagonist. […] In each experiment each data point was determined two times.

T1 sequence (P31424 21-1203): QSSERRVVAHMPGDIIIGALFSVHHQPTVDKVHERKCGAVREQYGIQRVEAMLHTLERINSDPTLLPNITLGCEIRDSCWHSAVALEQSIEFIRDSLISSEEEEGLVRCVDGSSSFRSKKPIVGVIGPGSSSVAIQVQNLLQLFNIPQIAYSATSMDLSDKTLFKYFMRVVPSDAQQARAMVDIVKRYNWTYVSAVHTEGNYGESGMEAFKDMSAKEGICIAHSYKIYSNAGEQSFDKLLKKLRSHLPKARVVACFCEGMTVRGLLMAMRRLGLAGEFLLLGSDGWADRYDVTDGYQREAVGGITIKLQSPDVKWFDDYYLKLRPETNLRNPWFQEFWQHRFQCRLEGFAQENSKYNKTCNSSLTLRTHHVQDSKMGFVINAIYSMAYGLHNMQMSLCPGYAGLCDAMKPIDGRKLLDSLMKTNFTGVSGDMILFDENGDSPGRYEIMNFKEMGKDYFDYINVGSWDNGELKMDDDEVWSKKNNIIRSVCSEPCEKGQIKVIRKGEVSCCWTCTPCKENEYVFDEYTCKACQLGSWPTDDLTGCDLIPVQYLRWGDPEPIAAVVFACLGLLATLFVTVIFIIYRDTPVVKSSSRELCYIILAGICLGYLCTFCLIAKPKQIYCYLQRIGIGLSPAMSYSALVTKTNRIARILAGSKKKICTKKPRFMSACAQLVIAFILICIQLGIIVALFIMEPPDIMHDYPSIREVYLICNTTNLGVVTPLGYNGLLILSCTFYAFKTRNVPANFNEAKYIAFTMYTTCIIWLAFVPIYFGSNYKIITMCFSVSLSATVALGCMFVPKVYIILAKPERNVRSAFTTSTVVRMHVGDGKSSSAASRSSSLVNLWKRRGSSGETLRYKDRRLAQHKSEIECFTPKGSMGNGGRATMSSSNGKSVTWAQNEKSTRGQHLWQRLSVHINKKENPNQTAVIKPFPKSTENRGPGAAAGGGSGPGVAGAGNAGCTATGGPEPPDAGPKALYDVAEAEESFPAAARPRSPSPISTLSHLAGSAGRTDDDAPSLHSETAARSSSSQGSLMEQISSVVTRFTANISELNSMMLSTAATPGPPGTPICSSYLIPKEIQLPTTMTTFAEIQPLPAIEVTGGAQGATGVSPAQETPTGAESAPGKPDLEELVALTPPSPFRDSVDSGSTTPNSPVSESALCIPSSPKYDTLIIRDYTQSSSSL

- IC50: 8.9 ± 4.8 nM
Compound: O=C(C#Cc1ccccc1)N1CCN(c2ncccc2[N+](=O)[O-])CC1 [Compound AA]
